From ChEMBL document CHEMBL4609994, “Application of protein knockdown strategy targeting β-sheet structure to multiple disease-associated polyglutamine proteins” (Bioorg Med Chem, 2020)
The source made the active and inactive calls. The rule behind the calls is not given here.

Tests used:
[1] = test system: Baculoviral IAP repeat-containing protein 2/Ataxin-7 (Homo sapiens), Q13490+O15265 [UNDEFINED MUTATION]; assay: Protac activity at C-IAP1/ataxin-7 mutant in fibroblasts derived from SCA7 patient assessed as reduction in mutant ataxin-7 expression at 10 uM after 24 hrs by Western blot analysis
[2] = test system: Baculoviral IAP repeat-containing protein 2/Atrophin-1 (Homo sapiens), Q13490+P54259 [UNDEFINED MUTATION]; assay: Protac activity at C-IAP1/atrophin-1 mutant in fibroblasts derived from DRPLA patient assessed as reduction in mutant atrophin-1 expression at 10 uM after 24 hrs by Western blot analysis
[3] = test system: Baculoviral IAP repeat-containing protein 2/Ataxin-3 (Homo sapiens), Q13490+P54252 [UNDEFINED MUTATION]; assay: Protac activity at C-IAP1/Ataxin-3 mutant in fibroblasts derived from SCA3 patient assessed as reduction in mutant ataxin-3 expression after 24 to 48 hrs by Western blot analysis
[4] = test system: Baculoviral IAP repeat-containing protein 2/Ataxin-7 (Homo sapiens), Q13490+O15265 [UNDEFINED MUTATION]; assay: Protac activity at C-IAP1/ataxin-7 mutant in fibroblasts derived from SCA7 patient assessed as reduction in mutant ataxin-7 expression after 24 to 48 hrs by Western blot analysis
[5] = test system: Baculoviral IAP repeat-containing protein 2/Atrophin-1 (Homo sapiens), Q13490+P54259 [UNDEFINED MUTATION]; assay: Protac activity at C-IAP1/atrophin-1 mutant in fibroblasts derived from DRPLA patient assessed as reduction in mutant atrophin-1 expression after 24 to 48 hrs by Western blot analysis
[6] = test system: Baculoviral IAP repeat-containing protein 2/Ataxin-3 (Homo sapiens), Q13490+P54252 [UNDEFINED MUTATION]; assay: Protac activity at C-IAP1/ataxin-3 mutant in fibroblasts derived from SCA3 patient assessed as reduction in mutant ataxin-3 expression at 10 uM by Western blot analysis; settings: TDE = time-dependent effect
[7] = test system: Baculoviral IAP repeat-containing protein 2/Ataxin-7 (Homo sapiens), Q13490+O15265 [UNDEFINED MUTATION]; assay: Protac activity at C-IAP1/ataxin-7 mutant in fibroblasts derived from SCA7 patient assessed as reduction in mutant ataxin-7 expression at 10 uM by Western blot analysis; settings: TDE = time-dependent effect
[8] = test system: Baculoviral IAP repeat-containing protein 2/Atrophin-1 (Homo sapiens), Q13490+P54259 [UNDEFINED MUTATION]; assay: Protac activity at C-IAP1/atrophin-1 mutant in fibroblasts derived from DRPLA patient assessed as reduction in mutant atrophin-1 expression at 10 uM by Western blot analysis; settings: TDE = time-dependent effect
[9] = test system: Baculoviral IAP repeat-containing protein 2/Ataxin-7 (Homo sapiens), Q13490+O15265 [UNDEFINED MUTATION]; assay: Protac activity at C-IAP1/ataxin-7 mutant in fibroblasts derived from SCA7 patient assessed as reduction in mutant ataxin-7 expression at 10 uM after 24 hrs in presence of proteasome inhibitor MG132 by Western blot analysis
[10] = test system: Baculoviral IAP repeat-containing protein 2/Atrophin-1 (Homo sapiens), Q13490+P54259 [UNDEFINED MUTATION]; assay: Protac activity at C-IAP1/atrophin-1 mutant in fibroblasts derived from DRPLA patient assessed as reduction in mutant atrophin-1 expression at 10 uM after 24 hrs in presence of proteasome inhibitor MG132 by Western blot analysis
[11] = test system: Baculoviral IAP repeat-containing protein 2/Ataxin-7 (Homo sapiens), Q13490+O15265 [UNDEFINED MUTATION]; assay: Protac activity at C-IAP1/ataxin-7 mutant in fibroblasts derived from SCA7 patient assessed as reduction in mutant ataxin-7 expression at 10 uM after 24 hrs in presence of proteasome inhibitor epoxomicin by Western blot analysis
[12] = test system: Baculoviral IAP repeat-containing protein 2/Atrophin-1 (Homo sapiens), Q13490+P54259 [UNDEFINED MUTATION]; assay: Protac activity at C-IAP1/atrophin-1 mutant in fibroblasts derived from DRPLA patient assessed as reduction in mutant atrophin-1 expression at 10 uM after 24 hrs in presence of proteasome inhibitor epoxomicin by Western blot analysis

Chain of Baculoviral IAP repeat-containing protein 2/Ataxin-3 (Homo sapiens), Q13490+P54252 [UNDEFINED MUTATION] (P54252 whole entry, looked up, change not shown): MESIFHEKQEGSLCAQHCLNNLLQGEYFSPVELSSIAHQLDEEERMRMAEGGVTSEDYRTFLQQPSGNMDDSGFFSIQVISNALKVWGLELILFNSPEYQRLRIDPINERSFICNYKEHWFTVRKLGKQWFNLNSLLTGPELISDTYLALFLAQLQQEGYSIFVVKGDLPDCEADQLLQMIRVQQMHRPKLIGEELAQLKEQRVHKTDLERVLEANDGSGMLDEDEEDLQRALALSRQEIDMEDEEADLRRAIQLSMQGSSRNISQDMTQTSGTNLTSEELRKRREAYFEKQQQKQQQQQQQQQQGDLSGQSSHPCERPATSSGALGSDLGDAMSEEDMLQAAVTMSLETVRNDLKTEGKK
Chain of Baculoviral IAP repeat-containing protein 2/Ataxin-3 (Homo sapiens), Q13490+P54252 [UNDEFINED MUTATION] (Q13490 whole entry, looked up, change not shown): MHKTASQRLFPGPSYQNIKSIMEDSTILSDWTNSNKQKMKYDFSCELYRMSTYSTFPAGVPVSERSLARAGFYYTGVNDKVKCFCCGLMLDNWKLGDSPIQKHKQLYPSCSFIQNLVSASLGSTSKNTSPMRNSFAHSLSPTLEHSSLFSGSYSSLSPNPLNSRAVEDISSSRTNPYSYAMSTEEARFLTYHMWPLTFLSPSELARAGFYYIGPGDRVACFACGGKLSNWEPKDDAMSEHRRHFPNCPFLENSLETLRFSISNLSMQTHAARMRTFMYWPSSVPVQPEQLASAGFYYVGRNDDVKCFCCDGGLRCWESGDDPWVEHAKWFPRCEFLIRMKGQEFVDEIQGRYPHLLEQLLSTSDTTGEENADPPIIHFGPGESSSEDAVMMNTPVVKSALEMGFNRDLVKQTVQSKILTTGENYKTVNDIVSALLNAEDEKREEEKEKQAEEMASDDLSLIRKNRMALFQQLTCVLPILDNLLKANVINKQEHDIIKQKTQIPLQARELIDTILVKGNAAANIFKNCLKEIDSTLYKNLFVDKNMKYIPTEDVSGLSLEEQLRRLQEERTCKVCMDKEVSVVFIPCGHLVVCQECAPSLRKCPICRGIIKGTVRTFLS
Chain of Baculoviral IAP repeat-containing protein 2/Ataxin-7 (Homo sapiens), Q13490+O15265 [UNDEFINED MUTATION] (O15265 whole entry, looked up, change not shown): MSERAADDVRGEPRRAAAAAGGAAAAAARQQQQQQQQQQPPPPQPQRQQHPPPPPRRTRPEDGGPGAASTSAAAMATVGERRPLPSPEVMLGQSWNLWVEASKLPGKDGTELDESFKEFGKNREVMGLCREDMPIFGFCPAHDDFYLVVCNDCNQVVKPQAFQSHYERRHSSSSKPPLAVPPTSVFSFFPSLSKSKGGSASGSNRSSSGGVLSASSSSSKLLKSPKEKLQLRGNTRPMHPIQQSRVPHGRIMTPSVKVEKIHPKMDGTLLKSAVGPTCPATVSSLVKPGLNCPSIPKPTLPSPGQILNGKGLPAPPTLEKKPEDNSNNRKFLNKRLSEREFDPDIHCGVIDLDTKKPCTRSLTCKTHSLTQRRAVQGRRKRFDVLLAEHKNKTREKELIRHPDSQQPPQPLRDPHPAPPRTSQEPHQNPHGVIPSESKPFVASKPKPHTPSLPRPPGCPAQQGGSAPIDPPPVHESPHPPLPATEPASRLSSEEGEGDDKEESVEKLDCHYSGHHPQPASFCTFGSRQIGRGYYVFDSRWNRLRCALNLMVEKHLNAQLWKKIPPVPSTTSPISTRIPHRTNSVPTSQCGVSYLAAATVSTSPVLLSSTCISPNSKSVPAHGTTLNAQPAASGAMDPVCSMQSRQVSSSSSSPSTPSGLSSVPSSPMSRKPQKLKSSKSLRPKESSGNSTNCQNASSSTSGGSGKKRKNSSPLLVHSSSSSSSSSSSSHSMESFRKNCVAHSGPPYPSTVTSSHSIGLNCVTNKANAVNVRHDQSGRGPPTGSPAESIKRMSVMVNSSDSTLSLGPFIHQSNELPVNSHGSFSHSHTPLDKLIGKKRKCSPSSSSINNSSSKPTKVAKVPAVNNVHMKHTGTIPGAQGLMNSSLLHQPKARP
Chain of Baculoviral IAP repeat-containing protein 2/Ataxin-7 (Homo sapiens), Q13490+O15265 [UNDEFINED MUTATION] (Q13490 whole entry, looked up, change not shown): as the sequence (Q13490 whole entry, looked up, change not shown) above
Chain of Baculoviral IAP repeat-containing protein 2/Atrophin-1 (Homo sapiens), Q13490+P54259 [UNDEFINED MUTATION] (P54259 whole entry, looked up, change not shown): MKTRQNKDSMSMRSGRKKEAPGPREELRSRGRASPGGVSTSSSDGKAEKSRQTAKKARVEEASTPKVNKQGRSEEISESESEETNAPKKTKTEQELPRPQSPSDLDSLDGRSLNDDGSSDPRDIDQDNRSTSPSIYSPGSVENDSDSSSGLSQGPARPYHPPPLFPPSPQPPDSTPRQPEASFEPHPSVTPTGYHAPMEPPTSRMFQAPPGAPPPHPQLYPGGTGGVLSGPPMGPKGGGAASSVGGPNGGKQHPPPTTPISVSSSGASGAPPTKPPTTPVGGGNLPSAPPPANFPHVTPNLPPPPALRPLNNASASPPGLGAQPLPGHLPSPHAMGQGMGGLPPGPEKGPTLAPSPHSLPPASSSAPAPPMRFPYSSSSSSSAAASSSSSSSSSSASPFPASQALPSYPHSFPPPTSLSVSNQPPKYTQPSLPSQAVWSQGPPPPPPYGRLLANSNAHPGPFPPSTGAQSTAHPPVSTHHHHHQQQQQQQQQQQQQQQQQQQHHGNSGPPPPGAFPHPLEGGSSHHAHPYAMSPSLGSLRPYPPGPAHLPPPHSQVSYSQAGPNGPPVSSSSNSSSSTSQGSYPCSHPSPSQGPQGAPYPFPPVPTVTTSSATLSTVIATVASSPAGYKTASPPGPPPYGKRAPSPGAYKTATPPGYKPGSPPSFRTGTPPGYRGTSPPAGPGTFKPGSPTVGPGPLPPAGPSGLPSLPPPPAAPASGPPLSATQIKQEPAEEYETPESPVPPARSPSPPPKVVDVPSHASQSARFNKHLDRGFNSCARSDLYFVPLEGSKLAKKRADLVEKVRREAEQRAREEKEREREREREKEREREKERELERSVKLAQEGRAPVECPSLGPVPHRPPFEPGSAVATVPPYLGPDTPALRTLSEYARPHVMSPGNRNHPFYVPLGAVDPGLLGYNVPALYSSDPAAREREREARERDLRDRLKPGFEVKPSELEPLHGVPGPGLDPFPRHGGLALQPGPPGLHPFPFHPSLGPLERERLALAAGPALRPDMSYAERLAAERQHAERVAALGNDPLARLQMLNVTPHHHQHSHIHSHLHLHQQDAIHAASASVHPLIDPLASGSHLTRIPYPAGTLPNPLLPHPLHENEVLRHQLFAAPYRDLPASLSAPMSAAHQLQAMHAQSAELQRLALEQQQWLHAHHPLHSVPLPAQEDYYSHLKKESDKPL
Chain of Baculoviral IAP repeat-containing protein 2/Atrophin-1 (Homo sapiens), Q13490+P54259 [UNDEFINED MUTATION] (Q13490 whole entry, looked up, change not shown): as the sequence (Q13490 whole entry, looked up, change not shown) above

Compound | Activity [1] | Activity [2] | Activity [3] | Activity [4] | Activity [5] | Activity [6] | Activity [7] | Activity [8] | Activity [9] | Activity [10] | Activity [11] | Activity [12]
CNc1ccc(-c2nc3ccc(C)cc3s2)cc1 | inactive | inactive | – | – | – | – | – | – | – | – | – | –
CC(C)C[C@H](NC(=O)[C@@H](O)[C@H](N)Cc1ccccc1)C(=O)NCCOCCOCCOc1ccc2nc(/N=N/c3ccc(N(C)C)cc3)sc2c1 | – | – | Dose-dependent effect | Dose-dependent effect | Dose-dependent effect | Tde | Tde | Tde | – | – | – | –
Cc1ccc2nc(-c3ccc(NCCOCCOCCNC(=O)[C@H](CC(C)C)NC(=O)[C@@H](O)[C@H](N)Cc4ccccc4)cc3)sc2c1 | Active | Active | Dose-dependent effect | Dose-dependent effect | Dose-dependent effect | Tde | Tde | Tde | inactive | inactive | inactive | inactive
CNC(=O)[C@H](CC(C)C)NC(=O)[C@@H](O)[C@H](N)Cc1ccccc1 | inactive | inactive | – | – | – | – | – | – | – | – | – | –
